Experimental data reported in paper PMC9252919, “Controlled masking and targeted release of redox-cycling ortho-quinones via a C–C bond-cleaving 1,6-elimination” (Nature Chemistry, 2022).
Like-named read-outs stand apart in the source and are kept apart here. Each block holds one compound with its values, some of them ahead of it.

What was measured:
[1] = Penicillin-G-amidase-mediated kinetic analysis of elimination at physiological pH (HPLC); type: physicochemical; conditions: pH 7.4, 37 °C
Protocol: Stocks of 2-phenylacetyl-para-aminobenzyl ketol were made up in DMF at a concentration of 10 mM. For a reaction, 17.5 µl of ketol stock was added to 17.5 µl of a 10 mM stock of internal standard in DMF and 310 µl of PBS at pH 7.4. To initiate a reaction, 5 µl of a suspension of penicillin G amidase (PenG, Sigma-Aldrich enzyme 76427, 5–10 U mg^−1) was added. In control samples 5 µl of PBS was added in place of the enzyme. Test and control samples were then incubated at 37 °C with shaking. At the recorded time points, 20 µl aliquots of the reactions were analysed by HPLC (254 nm, ThermoFisher U3000). HPLC column: Phenomenex Kinetex C18, 5 µm, 50 × 4.6 mm, 100 Å; flow, 1 ml min^−1. Gradient and solvent system for assay with 2-phenylacetyl-PAB-PhQ 21: A = H2O, B = acetonitrile, t = 0–1 min 0% B, t = 1–10 min 0–100% B, t = 10–11 min 0% B. Gradient and solvent system for assay with 2-phenylacetyl-PAB-BL 22 and 2-phenylacetyl-PAB-DN 23: A = H2O + 0.1% formic acid, B = acetonitrile + 0.1% formic acid, t = 0–1 min 0% B, t = 1–10 min 0–40% B, t = 10–16 min 40–50% B, t = 16.1 min 100% B, t = 16.1–18 min 100% B, t = 18–20 min 0% B. Peaks were identified by LC–MS analysis and comparison with pure compounds. Values described represent peak area (mAU × min) divided by peak area of internal standard. Recorded values are averages of three independent reactions and error bars display standard errors of the mean. Fitting was performed using GraphPad Prism 8 software. Rate and half-life measurements were calculated by consumption of intermediate para-aminobenzyl ketol and formation of product quinone.

[2] = pH-rate aqueous kinetic analysis of fragmentation (HPLC); type: physicochemical; conditions: for kobs of elimination at pH 3: pH 3, 37 °C; for kobs of elimination at pH 3 / kobs of elimination at pH 6: citrate-phosphate buffer; for kobs of elimination at pH 6: pH 6, 37 °C
Protocol: pH-rate analysis was performed by adaption of the PenG assay. To obtain deprotected para-aminobenzyl ketol species, 2-phenylacetyl protected ketol was dissolved in PBS with 33% DMF to a concentration of 3.3 mM. Then 20 µl of a stock solution of PenG was added to 600 µl of this stock and incubated for 20 min at 37 °C, after which 20 µl of a 100 mM stock of internal standard in DMSO was added. Reactions were then set up immediately. For a reaction, 10 µl of the aminobenzyl ketol/standard stock was added to 190 µl of citrate–phosphate buffer at the specified pH to obtain an aqueous solution containing 1.8% DMSO. Test samples were incubated at 37 °C with shaking. At the recorded time points, 20 µl aliquots of the reactions were analysed by HPLC (254 nm, ThermoFisher U3000). HPLC conditions: column Phenomenex Kinetex C18 5 µm, 50 × 4.6 mm, 100 Å; solvent system A = H2O + 0.1% formic acid, B = acetonitrile + 0.1% formic acid; flow, 1 ml min^−1. Gradient for assay with PAB-PhQ 7: t = 0–1 min 0% B, t = 1–10 min 0–100% B, t = 10–11 min 0% B. Gradient for assay with PAB-BL 10 and PAB-DN 18: t = 0–1 min 0% B, t = 1–10 min 0–40% B, t = 10–16 min 40–50% B, t = 16.1 min 100% B, t = 16.1–18 min 100% B, t = 18–20 min 0% B. Values described represent peak area (mAU × min) divided by peak area of internal standard. Where necessary, peaks were deconvoluted using Origin fitting software. Recorded values are averages of three independent reactions and error bars display standard errors of the mean. Values were fitted using GraphPad Prism software. Rate and half-life measurements were calculated based on consumption of the para-aminobenzyl ketol species.

[3] = 1H NMR kinetic analysis of elimination of PAB-PhQ in MeOD; type: physicochemical
Protocol: Kinetics of the release of PhQ 4 from PAB-PhQ 7 were monitored by ^1H NMR at 25 °C. Analysis was performed in MeOD due to poor solubility of the compound in H2O. To form the active eliminating species, Boc-PAB-PhQ 6 was dissolved in dichloromethane/trifluoroacetic acid 4:1 at 0 °C and stirred for 30 min, upon which the reaction appeared complete by TLC. Product 7 was dried in vacuo before being dissolved in MeOD. The basicity of the solution was altered by addition of triethylamine (drops). pH was estimated using pH paper. pH values are only indicative because analysis is performed in MeOD. Elimination rates were determined from the aromatic region. Kinetics were measured by monitoring the integral of one peak, normalized to the number of protons present (that is, the integral of 1H), divided by the total integral of the aromatic region (δ = 6.2–8.6 ppm, that is, the integral of 12 H). Analysis was performed using Mestrenova v.14.2.0 processing software and rate constants were calculated using GraphPad Prism v.8.0 software.

[4] = In vitro redox-cycling phenol red/horseradish peroxidase reporter assay; conditions: phenol red/HRP with DTT, up to 25 μM
Protocol: The in vitro redox-cycling capability of compounds was assessed by phenol red/horseradish peroxidase (HRP) assay by adaption of a previously described protocol. Briefly, stocks were prepared as follows: (1) DTT to a concentration of […] in PBS pH 7.4 buffer; (2) compound stocks in PBS pH 7.4 buffer to 3× the desired concentration by 1,000× dilution of DMSO stocks; (3) a stock of phenol red/HRP detection reagent containing 300 µg ml^−1 phenol red and 180 µg ml^−1 HRP enzyme in PBS pH 7.4 buffer; (4) a stock of 1 M NaOH in water; (5) a stock of 100 µM H2O2 in PBS prepared by addition of a 30% solution of H2O2 in water into 1,000 µl of PBS. Into each well of a 96-well clear flat-bottomed plate was then added 40 µl of compound stock in PBS followed by 40 µl of DTT stock, followed immediately by 40 µl of phenol red/HRP reagent. A positive control with 100 µM H2O2 added in place of compound was included. The plate was incubated in the dark at room temperature for 15 min. Following this, 20 µl of 1 M NaOH was added to each well to terminate the reaction. Absorbance was immediately measured at 610 nm (MiniMax i3x Imager, Molecular Devices). Absorbance of treated wells was normalized to control wells treated with PBS only (zero redox cycling).

recombinant human 5-LO = target: T1, recombinant human 5-LO (Homo sapiens, UniProt P09917); test: Cell-free activity assay for recombinant human 5-LO; type: biochemical
T1 construct: made in house; host or cells: Escherichia coli BL21
T1 sequence (P09917 1-674): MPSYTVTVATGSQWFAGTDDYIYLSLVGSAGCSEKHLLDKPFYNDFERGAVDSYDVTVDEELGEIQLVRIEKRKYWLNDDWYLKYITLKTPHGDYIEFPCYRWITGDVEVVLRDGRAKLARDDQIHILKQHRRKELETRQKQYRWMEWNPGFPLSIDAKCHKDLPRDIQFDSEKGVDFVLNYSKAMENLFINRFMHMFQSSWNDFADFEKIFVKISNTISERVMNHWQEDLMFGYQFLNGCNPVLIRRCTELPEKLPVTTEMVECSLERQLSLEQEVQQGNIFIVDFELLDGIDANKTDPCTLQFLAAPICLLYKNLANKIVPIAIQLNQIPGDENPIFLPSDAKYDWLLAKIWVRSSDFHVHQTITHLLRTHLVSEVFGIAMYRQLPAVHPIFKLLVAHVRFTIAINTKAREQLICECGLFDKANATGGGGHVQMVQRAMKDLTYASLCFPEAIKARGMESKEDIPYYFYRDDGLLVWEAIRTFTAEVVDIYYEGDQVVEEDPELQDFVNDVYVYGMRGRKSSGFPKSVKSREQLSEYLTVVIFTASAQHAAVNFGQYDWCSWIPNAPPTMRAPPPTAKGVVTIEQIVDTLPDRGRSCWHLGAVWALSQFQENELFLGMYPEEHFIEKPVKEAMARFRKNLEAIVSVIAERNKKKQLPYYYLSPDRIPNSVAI
Protocol: Escherichia coli (BL21) was transformed with pT3-5-LO plasmid, and recombinant 5-LO protein was expressed at 30 °C as described. Cells were lysed in 50 mM triethanolamine/HCl pH 8.0, 5 mM EDTA, 1 mM phenylmethanesulfonyl fluoride, soybean trypsin inhibitor (60 μg ml^−1) and lysozyme (1 mg ml^−1), homogenized by sonication (3 × 15 s) and centrifuged at 40,000g for 20 min at 4 °C. The 40,000g supernatant (S40) was applied to an ATP–agarose column to partially purify 5-LO as described. Aliquots of semipurified 5-LO (0.5 μg) were diluted with 1 ml ice-cold PBS containing 1 mM EDTA. Samples were preincubated with the test compound or vehicle (0.1% DMSO) with or without 1 mM DTT, as indicated. After 10 min at 4 °C, samples were prewarmed for 30 s at 37 °C, and 2 mM CaCl2 plus 20 μM arachidonic acid was added to start the formation of 5-LO products. After 10 min, the reaction was stopped by addition of 1 volume of ice-cold methanol, and the formed 5-LO products were analysed by reverse-phase HPLC as described. 5-LO products include the all-trans isomers of LTB4 (trLTB4 isomers) and 5(S)-hydroperoxy-6-trans-8,11,14-cis-eicosatetraenoic acid and its corresponding alcohol 5(S)-hydroxy-6-trans-8,11,14-cis-eicosatetraenoic acid.

ovine blood = test: Methaemoglobin analysis in ovine blood; design: species or system sheep; conditions: in vitro ovine blood model, 1 h incubation
Protocol: Defibrinated Oxoid sheep’s blood (ThermoScientific) was diluted to a 5% v/v suspension in PBS pH 7.4. In a 96-well microtitre plate, 150 µl of blood suspension was added to 50 µl of serially diluted compound in PBS containing a 4× stock of each compound of interest. Serial dilution of compounds from DMSO stocks into PBS was performed to achieve an in-plate DMSO concentration of 0.1%. PBS buffer alone was used as a negative control. The plate was incubated for the specified time at 37 °C. The plate was then centrifuged at 3,500 r.p.m. for 5 min. The supernatant was removed and cells lysed by resuspension in 100 µl of a solution of Triton-X-100 (1%) in PBS. Following this, 80 µl of lysed cell contents were transferred to a second microtitre plate for ultraviolet measurement. Ultraviolet absorbance was measured immediately at 630 nm (MiniMax i3x Imager, Molecular Devices). Methaemoglobin increase was determined by A630−A6300/A6300×100 , where A630 is the absorbance of the test well at 630 nm, and A6300 is the absorbance of the negative control at 630 nm.

AML cell line MOLM-13 = test: Viability assay with small-molecule prodrugs, MOLM-13; type: cell-based; conditions: 5 µM, 24 h
Protocol: For assays assessing cytotoxicity of β-lapachone versus small-molecule prodrugs, antibodies and ADCs, suspension cells were plated into 24-well plates at a density of 2.5 × 10^5 cells ml^−1 in 240 µl. Stocks of ADC or antibody in PBS were normalized to 12.5 µM. Serial dilutions of compound were made up in PBS. Then, 60 µl of each stock of either PBS or compound in PBS was added to the cells to achieve the desired final concentration. After the specified incubation time, toxicity was assessed by counting of live cells using the trypan blue exclusion method with a Countess II Automated Cell Counter (ThermoFisher Scientific) according to the manufacturer’s instructions. Cell viability was determined by dividing the average live cell number of treated wells by the average live cell number for control wells treated with PBS only. IC50 values were calculated using GraphPad Prism software. Note: for the assay performed over 96 h, 5% human serum was added to media instead of 10% fetal bovine serum, to limit non-specific antibody internalisation. This had little effect on ADC toxicity.

[5] = 25 °C, moderately acidic methanolic solution

kobs, formation of PhQ 4 following addition of penicillin G amidase to 21 [1]: 1.15 ± 0.66 × 10^–5 s^–1
stability without added enzyme ([1]; no penicillin G amidase): stable
Compound: 2-phenylacetyl-PAB-PhQ [Compound 21]

pH at which elimination rate peaks ([2]; 37 °C): 3
kobs of elimination at pH 3 [2]: 1.1 ± 0.1 × 10^–5 s^–1
kobs of elimination at pH 6 [2]: 2.1 ± 0.8 × 10^–7 s^–1
elimination resulting in formation of 1 ([2]; pH ≥6, within 72 h, 37 °C): Negligible
Compound: CC1(C)CCC2=C(O1)c1ccccc1C(O)(Cc1ccc(N)cc1)C2=O (stereo not drawn) [Compound 10]

kobs, rate of consumption of 7 [3, 5]: 6.18 ± 0.12 × 10^–5 s^–1
kobs, rate of formation of product 4 from 7 [3, 5]: 6.55 ± 0.22 × 10^–5 s^–1
time to complete release of 4 from 7 [3, 5]: ≤ 20 h
completeness of release of 4 from 7 ([3]; basic conditions): not complete after 40 h
kobs, appearance of 4 from 7 ([3]; basic conditions, MeOD with triethylamine): 1.16 ± 0.18 × 10^–6 s^–1
kobs, elimination of 7 ([1]; 7 generated enzymatically from 21): 9.72 ± 2.88 × 10^–6 s^–1
pH at which elimination rate peaks ([2]; 37 °C): 5–6
kobs of elimination at pH 6 [2]: 1.7 ± 0.3 × 10^–5 s^–1
Compound: Nc1ccc(CC2(O)C(=O)c3ccccc3-c3ccccc32)cc1 (stereo not drawn) [Compound 7, para-aminobenzyl phenanthrene-ketol]

in vitro redox activity [4]: no measurable redox activity
IC50 (recombinant human 5-LO; with DTT (1 mM), read-out: IC50, 5-LO inhibition with DTT): 11.5 ± 2.2 µM
IC50 (recombinant human 5-LO; without DTT, read-out: IC50, 5-LO inhibition without DTT): 11.3 ± 1.1 µM
methaemoglobin formation (ovine blood): did not occur
Compound: CC1(C)CCc2c3c(c4ccccc4c2O1)OCCO3 [Compound 25]

Compound: CC(=O)Oc1c2c(c3ccccc3c1OC(C)=O)OC(C)(C)CC2 [Compound 29]
toxicity to MOLM-13 at 5 µM (AML cell line MOLM-13): complete cell death

kobs of elimination at pH 3 [2]: 9.1 ± 0.2 × 10^–6 s^–1
kobs of elimination at pH 6 [2]: 7.4 ± 1.1 × 10^–7 s^–1
Compound: CC1OC2=C(C(=O)C(O)(Cc3ccc(N)cc3)c3ccccc32)C1(C)C (stereo not drawn) [Compound 18]
